Results: patent US8389552B2, “(S)-6-(2-(4-(cyclobutylsulfonyl)-1H-imidazol-1-yl)-3-cyclopentylpropanamido)nicotinic acid useful as a glucokinase activator” (Pfizer Inc., priority 2009, dated 2013)

Target: T1, Full-length glucokinase (beta cell isoform) (Homo sapiens, UniProt P35557)
T1 construct: Full-length glucokinase (beta cell isoform) was His-tagged at N-terminus; His tag (N); made in house; host or cells: E. coli BL21(DE3), pBCGK vector
T1 sequence (P35557 1-465): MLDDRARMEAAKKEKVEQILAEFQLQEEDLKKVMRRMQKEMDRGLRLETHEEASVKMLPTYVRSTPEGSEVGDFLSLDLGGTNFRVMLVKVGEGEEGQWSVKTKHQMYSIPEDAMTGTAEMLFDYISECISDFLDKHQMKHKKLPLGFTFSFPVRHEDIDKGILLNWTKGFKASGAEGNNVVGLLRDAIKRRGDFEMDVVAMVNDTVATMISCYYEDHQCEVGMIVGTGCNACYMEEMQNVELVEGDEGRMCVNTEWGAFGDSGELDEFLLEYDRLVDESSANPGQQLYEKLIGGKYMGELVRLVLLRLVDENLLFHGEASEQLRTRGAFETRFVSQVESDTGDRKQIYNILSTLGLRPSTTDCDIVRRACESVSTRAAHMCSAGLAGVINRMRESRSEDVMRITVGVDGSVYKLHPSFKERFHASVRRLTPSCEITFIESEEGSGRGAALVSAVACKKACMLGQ
Assay: Glucokinase activation assay (PK/LDH-coupled, NADH depletion at 340 nm)
Assay type: biochemical
Settings: 5 mM glucose, single value or range where N>1; for EC50: 2.5 mM ATP, pH 7.1, room temperature, read-out: EC50; for Emax: % max activation = (Va/Vo−1)×100 from fit, pH 7.1, read-out: Maximum Activation (%)
Experimental: Full-length glucokinase (beta cell isoform) was His-tagged at N-terminus and purified by a Ni column followed by size exclusion chromatography. A 320 mL column was packed in house using Superdex75 (Amersham Pharmacia, Carlsbad, Calif.) preparation grade resin. Glucose was obtained from Calbiochem (San Diego, Calif.) and other reagents were purchased from Sigma-Aldrich (St. Louis, Mo.).
All assays were performed in a Corning 384-well plate using Spectramax PLUS spectrophotometer (Molecular Devices, Sunnyvale, Calif.) at room temperature. The final assay volume was 40 ∥L. The buffer conditions used in this assay were as follows: 50 mM HEPES, 5 mM glucose, 2.5 mM ATP, 3.5 mM MgCl2, 0.7 mM NADH, 2 mM dithiothreitol, 1 unit/mL pyruvate kinase/lactate dehydrogenase (PK/LDH), 0.2 mM phosphoenolpyruvate, and 25 mM KCl. The buffer pH was 7.1. The test compound in dimethylsulfoxide solution was added to the buffer and mixed by a plate shaker for 7.5 minutes. The final concentration of dimethylsulfoxide introduced into the assay was 0.25%.
Glucokinase was added to the buffer mixture to initiate the reaction in the presence and absence of compound. The reaction was monitored by absorbance at 340 nm due to the depletion of NADH. The initial reaction velocity was measured by the slope of a linear time course of 0-300 seconds. The percentage of maximum activation was calculated by the following equation: % Maximum Activation=(Va/Vo−1)×100; wherein each of Va and Vo is defined as the initial reaction velocity in the presence and absence of the tested compound, respectively.
The glucokinase activities were measured as a function of compound concentrations.

EC50	Emax	Structure (SMILES)
6.7 to 8.8 µM	90 to 113%	CS(=O)(=O)c1ccc(NC(=O)[C@H](CC2CCCC2)n2cnc(C(F)(F)F)c2)nc1 [Example 51, (S)-3-cyclopentyl-N-[5-(methylsulfonyl)pyridin-2-yl]-2-[4-(trifluoromethyl)-1H-imidazol-1-yl]propanamide]
8.7 µM	115%	Cc1cnc(NC(=O)[C@H](CC2CCOCC2)n2cnc(C(F)(F)F)c2)cn1 [Example 74, (S)—N-(5-methylpyrazin-2-yl)-3-(tetrahydro-2H-pyran-4-yl)-2-(4-(trifluoromethyl)-1H-imidazol-1-yl)propanamide]
2 µM	161%	Cc1cnc(NC(=O)[C@H](CC2CCCC2)n2cnc(C(F)(F)F)c2)cn1 [Example 45, (S)-3-cyclopentyl-N-(5-methylpyrazin-2-yl)-2-(4-(trifluoromethyl)-1H-imidazol-1-yl)propanamide]
17 µM	84%	CC(C)(C(=O)O)c1ccc(NC(=O)[C@H](CC2CCCC2)n2cnc(C(F)(F)F)c2)nc1 [Example 65, (S)-2-(6-(3-cyclopentyl-2-(4-(trifluoromethyl)-1H-imidazol-1-yl)propanamido)pyridin-3-yl)-2-methylpropanoic acid]
4.6 µM	112%	O=C(Nc1ccc(CP(=O)(O)O)cn1)[C@H](CC1CCCC1)n1cnc(C(F)(F)F)c1 [Example 60, (S)-(6-(3-cyclopentyl-2-(4-(trifluoromethyl)-1H-imidazol-1-yl)propanamido)pyridin-3-yl)methylphosphonic acid]
5.5 µM	90%	Cc1ccc(NC(=O)[C@H](CC2CCCC2)n2ccc(C(F)(F)F)n2)nc1 [Example 69, (S)-3-cyclopentyl-N-(5-methylpyridin-2-yl)-2-(3-(trifluoromethyl)-1H-pyrazol-1-yl)propanamide]
> 50 µM	–	Cc1cnc(NC(=O)[C@H](CC2CCCC2)n2nnc(S(C)(=O)=O)n2)cn1 [Example 81, (S)-3-cyclopentyl-N-(5-methylpyrazin-2-yl)-2-(5-(methylsulfonyl)-2H-tetrazol-2-yl)propanamide]
5.2 µM	167%	CC(C)(O)Cn1ccc(NC(=O)[C@H](CC2CCCC2)n2cnc(C(F)(F)F)c2)n1 [Example 56, (S)-3-cyclopentyl-N-(1-(2-hydroxy-2-methylpropyl)-1H-pyrazol-3-yl)-2-(4-(trifluoromethyl)-1H-imidazol-1-yl)propanamide]
> 100 µM	–	Cc1cnc(NC(=O)[C@H](CC2CCCC2)n2cc(C(=O)N(C)C)cn2)cn1 [Example 73, (S)-1-(3-cyclopentyl-1-(5-methylpyrazin-2-ylamino)-1-oxopropan-2-yl)-N,N-dimethyl-1H-pyrazole-4-carboxamide]

The next lines start with the molecule.

Structure (SMILES)	EC50	Emax
CCS(=O)(=O)c1cnn([C@@H](CC2CCCC2)C(=O)Nc2ccn(C)n2)c1 [Example 20, (S)-3-cyclopentyl-2-(4-(ethylsulfonyl)-1H-pyrazol-1-yl)-N-(1-methyl-1H-pyrazol-3-yl)propanamide]	7.2 µM	80%
Cc1ccc(NC(=O)[C@H](Cn2cccn2)n2cnc(C(F)(F)F)c2)nc1 [Example 83, (S)—N-(5-methylpyridin-2-yl)-3-(1H-pyrazol-1-yl)-2-(4-(trifluoromethyl)-1H-imidazol-1-yl)propenamide]	> 100 µM	–
O=C(Nc1cnccn1)[C@H](CC1CCCC1)n1cnc(C(F)(F)F)n1 [Example 84, (S)-3-cyclopentyl-N-(pyrazin-2-yl)-2-(3-(trifluoromethyl)-1H-1,2,4-triazol-1-yl)propanamide]	10 µM	171%
CS(=O)(=O)c1cnn([C@@H](CC2CCCC2)C(=O)Nc2ccc(C(=O)O)cn2)c1 [Example 24, (S)-6-(3-cyclopentyl-2-(4-(methylsulfonyl)-1H-pyrazol-1-yl)propanamido)nicotinic acid]	7 µM	145%
CCS(=O)(=O)c1cnn([C@@H](CC2CCCC2)C(=O)Nc2ccc(C)cn2)c1 [Example 21, (S)-3-cyclopentyl-2-(4-(ethylsulfonyl)-1H-pyrazol-1-yl)-N-(5-methylpyridin-2-yl)propanamide]	2.9 µM	65%
Cc1cn([C@@H](CC2CCCC2)C(=O)Nc2ccc(C(=O)O)cn2)nc1C(F)(F)F [Example 95, (S)-6-(3-cyclopentyl-2-(4-methyl-3-(trifluoromethyl)-1H-pyrazol-1-yl)propanamido)nicotinic acid]	8 µM	128%
Cn1ccc(NC(=O)[C@H](CC2CCCC2)n2ccc(C(F)(F)F)n2)n1 [Example 68, (S)-3-cyclopentyl-N-(1-methyl-1H-pyrazol-3-yl)-2-(3-(trifluoromethyl)-1H-pyrazol-1-yl)propanamide]	> 100 µM	–
CC(C)S(=O)(=O)c1cnn([C@@H](CC2CCCC2)C(=O)Nc2ccncn2)c1 [Example 4, (S)-3-cyclopentyl-2-(4-(isopropylsulfonyl)-1H-pyrazol-1-yl)-N-(pyrimidin-4-yl)propanamide]	0.9 to 2.2 µM	57 to 90%
Cc1ccc(NC(=O)[C@H](CC2CCCC2)n2cnc(S(C)(=O)=O)n2)nc1 [Example 25, (S)-3-cyclopentyl-N-(5-methylpyridin-2-yl)-2-(3-(methylsulfonyl)-1H-1,2,4-triazol-1-yl)propanamide]	3.9 µM	116%
CS(=O)(=O)c1cnn([C@@H](CC2CCCC2)C(=O)Nc2ccc(C(F)(F)F)cn2)c1 [Example 10, (S)-3-cyclopentyl-2-(4-(methylsulfonyl)-1H-pyrazol-1-yl)-N-(5-(trifluoromethyl)pyridin-2-yl)propanamide]	4.8 µM	56%
CC(C)S(=O)(=O)c1cnn([C@@H](CC2CCCC2)C(=O)Nc2ccn(Cc3ccccc3)n2)c1 [Example 19, (S)—N-(1-benzyl-1H-pyrazol-3-yl)-3-cyclopentyl-2-(4-(isopropylsulfonyl)-1H-pyrazol-1-yl)propanamide]	1.3 to 1.7 µM	33 to 39%
CC(C)S(=O)(=O)c1cnn([C@@H](CC2CCCC2)C(=O)Nc2ccn(C)n2)c1 [Example 7, (S)-3-cyclopentyl-2-(4-(isopropylsulfonyl)-1H-pyrazol-1-yl)-N-(1-methyl-1H-pyrazol-3-yl)propanamide]	3.5 to 6 µM	39 to 40%
O=C(O)Cn1ccc(NC(=O)[C@H](CC2CCCC2)n2cnc(C(F)(F)F)n2)n1 [Example 89, (S)-2-(3-(3-cyclopentyl-2-(3-(trifluoromethyl)-1H-1,2,4-triazol-1-yl)propanamido)-1H-pyrazol-1-yl)acetic acid]	45 µM	183%
CC(C)S(=O)(=O)c1cnn([C@@H](CC2CCCC2)C(=O)Nc2ccccn2)c1 [Example 16, (S)-3-cyclopentyl-2-(4-(isopropylsulfonyl)-1H-pyrazol-1-yl)-N-(pyridin-2-yl)propanamide]	1.9 µM	48%
CS(=O)(=O)c1cn([C@@H](CC2CCCC2)C(=O)Nc2ccc(C(=O)O)cn2)cn1 [Example 38, (S)-6-(3-cyclopentyl-2-(4-(methylsulfonyl)-1H-imidazol-1-yl)propanamido)nicotinic acid]	2.3 µM	160%
CS(=O)(=O)c1cnn([C@@H](CC2CCCC2)C(=O)Nc2ccncn2)c1 [Example 13, (S)-3-cyclopentyl-2-(4-(methylsulfonyl)-1H-pyrazol-1-yl)-N-(pyrimidin-4-yl)propanamide]	32 µM	100%
